Converted amounts (≈) assume the structure as drawn.
How the values were obtained:
PBP2a = target: T1, PBP2a (Staphylococcus aureus, UniProt P07944); test: PBP2a enzymatic inhibition assay (fluorescein-labeled ampicillin, residual penicillin binding activity); type: biochemical, Staphylococcus aureus ATCC 43300; conditions: for remaining activity at 1000 µM: 4 h, residual activity of the enzyme at 1 mM inhibitor, 0.01% Triton X-100, mean of three experiments, read-out: PBP2a RA [%]; for IC50: in the presence of 0.01% Triton X-100
T1 construct: made in house
T1 sequence (P07944 whole entry): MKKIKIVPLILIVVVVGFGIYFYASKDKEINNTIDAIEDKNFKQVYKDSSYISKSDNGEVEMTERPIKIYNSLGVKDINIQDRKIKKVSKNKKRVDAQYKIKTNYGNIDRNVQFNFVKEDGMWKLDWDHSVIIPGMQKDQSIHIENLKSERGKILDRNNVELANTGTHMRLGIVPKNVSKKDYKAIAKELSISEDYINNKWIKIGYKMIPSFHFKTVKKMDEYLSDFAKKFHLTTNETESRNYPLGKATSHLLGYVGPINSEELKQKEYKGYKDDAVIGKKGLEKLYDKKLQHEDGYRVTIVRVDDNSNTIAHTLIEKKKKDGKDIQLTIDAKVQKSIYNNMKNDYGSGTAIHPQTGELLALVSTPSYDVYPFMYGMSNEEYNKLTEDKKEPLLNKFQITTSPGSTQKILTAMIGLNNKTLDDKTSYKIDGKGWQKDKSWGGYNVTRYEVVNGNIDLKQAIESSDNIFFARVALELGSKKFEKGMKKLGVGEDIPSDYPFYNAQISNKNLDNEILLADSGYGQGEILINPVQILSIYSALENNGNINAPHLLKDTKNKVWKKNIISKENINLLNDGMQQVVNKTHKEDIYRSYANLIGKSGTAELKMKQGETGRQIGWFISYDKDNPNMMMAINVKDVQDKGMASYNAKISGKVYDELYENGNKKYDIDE
Description: (§1) PBP2a from Staphylococcus aureus ATCC 43300 and PBP5fm from Enterococcus faecium D63r were overproduced and purified as described previously, [18].
(§2) Each of the purified PBPs (2.5 µM) were first incubated with 1 mM potential inhibitor in 100 mM phosphate buffer, 0.01% Triton X-100[19], pH 7, for 4 h at 30°C. Then, 25 µM fluorescein-labeled ampicillin[20] was added to detect the residual penicillin binding activity (RA). The samples were further incubated for 30 min at 37°C in a total volume of 20 µL. Denaturation buffer was added (0.1 M Tris/HCl, pH 6.8, containing 25% glycerol, 2% SDS, 20% β-mercaptoethanol and 0.02% bromophenol blue) and the samples were heated to 100°C for 1 min. The samples were then loaded onto a 10% SDS-acrilamide gel (10×7 cm) and electrophoresis was performed for 45 min at 180 V (12 mA). Detection and quantification of the RAs were with Molecular Image FX equipment and Quantity One software (BioRad, Hercules, CA, USA). Three independent experiments were carried out for each inhibitor.

PBP2x 5204 = PBP2x 5204 (Streptococcus pneumoniae, UniProt P59676); test: PBP2x 5204 enzymatic inhibition assay (S2d hydrolysis, DTNB); type: biochemical, Streptococcus pneumoniae strain 5204; conditions: residual activity of the enzyme at 1 mM inhibitor; 240 min
PBP2x 5204, sequence (P59676 49-750): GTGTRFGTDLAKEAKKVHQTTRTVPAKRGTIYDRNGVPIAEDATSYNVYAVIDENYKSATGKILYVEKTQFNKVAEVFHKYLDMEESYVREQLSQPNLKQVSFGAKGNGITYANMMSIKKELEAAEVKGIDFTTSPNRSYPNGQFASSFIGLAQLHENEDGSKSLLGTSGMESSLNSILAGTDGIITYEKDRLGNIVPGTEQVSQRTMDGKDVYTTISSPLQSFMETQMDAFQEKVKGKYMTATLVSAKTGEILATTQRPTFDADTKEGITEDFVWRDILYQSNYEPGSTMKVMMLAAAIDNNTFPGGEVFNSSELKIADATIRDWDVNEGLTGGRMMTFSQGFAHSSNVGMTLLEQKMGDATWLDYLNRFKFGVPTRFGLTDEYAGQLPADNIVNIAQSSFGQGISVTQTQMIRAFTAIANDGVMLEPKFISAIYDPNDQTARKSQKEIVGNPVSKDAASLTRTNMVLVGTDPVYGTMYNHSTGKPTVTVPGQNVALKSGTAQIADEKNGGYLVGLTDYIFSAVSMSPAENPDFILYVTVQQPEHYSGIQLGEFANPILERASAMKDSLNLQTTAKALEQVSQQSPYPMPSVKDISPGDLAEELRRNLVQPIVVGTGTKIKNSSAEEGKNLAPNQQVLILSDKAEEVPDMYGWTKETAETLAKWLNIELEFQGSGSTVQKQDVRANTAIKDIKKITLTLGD
Description: PBP2x-5204 from Streptococcus pneumonia and N-benzoyl-D-alanyl-thioglycolate S2d[21], [22] were prepared as previously described. All assays with PBP2x 5204 were carried out in 96-well microtiter plates (Brand, Wertheim, Germany). PBP2x 5204 (0.6 µM) was incubated in the presence of the potential inhibitors in 10 mM sodium phosphate buffer (pH 7.0) containing 70 mM D-alanine and 0.01 mg/mL BSA, for 4 h at 25°C. This preincubation was used to also detect slow binding inhibitors. After the preincubation, the RA of PBP2x 5204 was determined. The initial rate of hydrolysis of 1 mM S2d in the presence of 1 mM DTNB was determined by monitoring the increase in absorbance at 412 nm (DTNB: ε[Δ ε] = […]) using a microplate absorbance reader (Power Wave X, Biotek Instruments, Winooski, U.S.A.). The rate of spontaneous hydrolysis of S2d in the presence of the potential inhibitors was also determined in the absence of PBP2x 5204. All of the assays were carried out in triplicate. The determination of the RA of PBP2x 5204 in the absence of inhibitors was carried out six times on each plate. A test compound was considered as an inhibitor if the RA was <80%. In this case, to reveal false positives, the assays were also carried out under the same conditions in the presence of 0.01% Triton X-100. As described in the literature, promiscuous inhibitors (false positives) are slow binding, noncompetitive inhibitors. To avoid detailed kinetic investigations, it is possible to identify such compounds by carrying out the assays in the presence of Triton X-100[14], [19]. Promiscuous inhibitors show no inhibition in the presence of Triton X-100. The IC50 values in the presence of Triton X-100 were determined if the RAs were <50%. (RA: ∼50%, IC50∼c, c: concentration of compound in the assay; RA >50%, IC50 > c). The RA was measured over a range of concentrations, from which the IC50 values were determined by non-linear regression analysis, using Sigma Plot (Systat software) and fitting the data to the equation y = y0+(a×b)/(b+x)[23].

PBP5fm = PBP5fm (Enterococcus faecium, UniProt Q47759); test: PBP5fm enzymatic inhibition assay (fluorescein-labeled ampicillin, residual penicillin binding activity); type: biochemical, Enterococcus faecium D63r; conditions: for activity at 1000 µM: 4 h, residual activity of the enzyme at 1 mM inhibitor, 0.01% Triton X-100, read-out: PBP5fm RA [%]; for IC50: in the presence of 0.01% Triton X-100
PBP5fm, sequence (Q47759 entry or part of it): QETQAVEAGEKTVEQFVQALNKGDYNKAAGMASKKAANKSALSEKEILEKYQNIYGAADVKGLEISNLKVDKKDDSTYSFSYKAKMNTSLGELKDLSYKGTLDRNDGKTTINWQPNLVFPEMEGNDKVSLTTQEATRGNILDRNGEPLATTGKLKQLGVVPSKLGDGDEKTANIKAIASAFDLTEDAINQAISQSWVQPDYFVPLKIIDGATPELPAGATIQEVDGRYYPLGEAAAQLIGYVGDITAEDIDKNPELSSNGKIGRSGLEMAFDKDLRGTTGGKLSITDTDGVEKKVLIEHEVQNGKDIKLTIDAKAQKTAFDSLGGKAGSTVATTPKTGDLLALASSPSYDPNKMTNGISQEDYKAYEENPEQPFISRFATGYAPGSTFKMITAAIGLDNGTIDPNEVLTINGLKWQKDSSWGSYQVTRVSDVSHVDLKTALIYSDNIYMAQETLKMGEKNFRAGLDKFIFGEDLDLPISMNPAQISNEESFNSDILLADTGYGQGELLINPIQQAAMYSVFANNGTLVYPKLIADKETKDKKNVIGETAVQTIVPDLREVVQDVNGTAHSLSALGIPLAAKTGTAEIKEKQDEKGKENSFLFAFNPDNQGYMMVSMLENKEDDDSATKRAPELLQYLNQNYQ
Description: as §1, §2

[1] = test system: Bacillus subtilis ATCC 6633; test: In-vitro antibacterial activity (MIC, broth microdilution); type: cell-based; conditions: ATCC6633
Description: (§3) Determination of the antibacterial activities was carried out on microtiter plates, in 200 µL (final volume) of Müeller-Hinton Broth (MHB), following EUCAST (European Committee on Antimicrobial Susceptibility testing)/CLSI (Clinical and Laboratory Standard Institute) recommended procedures, [25]. The compounds were solubilized in MHB, just before use. Inocula were prepared for each strain by resuspending isolated colonies from 18 h cultured plates. Equivalents of 0.5 Mac Farland turbidity standards (approximately 1×10^8 CFU mL^−1) were prepared in saline solution ([…]) and then diluted 200-fold in MBH.

[2] = test system: Citrobacter freundii ATCC 8090; test: as above; type: cell-based; conditions: ATCC8090
Description: as §3

[3] = test system: Enterococcus faecalis ATCC 29212; test: as above; type: cell-based; conditions: ATCC29212
Description: as §3

[4] = test system: Enterococcus faecalis ATCC 7937; test: as above; type: cell-based; conditions: ATCC7937
Description: as §3

[5] = test system: Enterococcus faecium ATCC 19434; test: as above; type: cell-based; conditions: ATCC19434
Description: as §3

[6] = test system: Enterococcus hirae ATCC 8790; test: as above; type: cell-based; conditions: ATCC8790
Description: as §3

[7] = test system: Escherichia coli ATCC 8739; test: as above; type: cell-based; conditions: ATCC8739
Description: as §3

[8] = test system: Klebsiella pneumoniae ATCC 13883; test: as above; type: cell-based; conditions: ATCC13883
Description: as §3

[9] = test system: Listeria innocua ATCC 33090; test: as above; type: cell-based; conditions: ATCC33090
Description: as §3

[10] = test system: Listeria monocytogenes ATCC 14780; test: as above; type: cell-based; conditions: ATCC14780
Description: as §3

[11] = test system: Micrococcus luteus ATCC 9341; test: as above; type: cell-based; conditions: ATCC9341
Description: as §3

[12] = test system: Proteus mirabilis ATCC 29936; test: as above; type: cell-based; conditions: ATCC29936
Description: as §3

[13] = test system: Pseudomonas aeruginosa ATCC 27853; test: as above; type: cell-based; conditions: ATCC27853
Description: as §3

[14] = test system: Staphylococcus aureus ATCC 25923; test: as above; type: cell-based; conditions: ATCC25923
Description: as §3

[15] = test system: Staphylococcus aureus ATCC 43300 (MRSA); test: as above; type: cell-based
Description: as §3

[16] = test system: Staphylococcus aureus mp 1 (inducible MRSA); test: as above; type: cell-based
Description: as §3

[17] = test system: Staphylococcus epidermidis ATCC 12228; test: as above; type: cell-based; conditions: ATCC12228
Description: as §3

[18] = test system: Streptococcus pneumoniae ATCC 33400; test: as above; type: cell-based; conditions: ATCC33400
Description: as §3

[19] = test system: Streptococcus pneumoniae ATCC 49619; test: as above; type: cell-based; conditions: ATCC49619
Description: as §3

[20] = test system: Streptococcus pneumoniae D39; test: as above; type: cell-based
Description: as §3

[21] = test system: panel of five Gram-negative and 15 Gram-positive bacterial strains; test: In-vitro antibacterial activity (MIC), whole panel; type: cell-based; conditions: summary over the whole panel; read-out: MICs for all of the bacterial strains under investigation
Description: as §3

## NC(=O)c1cccc(NS(=O)(=O)c2cccc3cccnc23)c1 [compound 2, 3-(Quinoline-8-sulfonamido)benzamide]
PBP2a
  remaining activity at 1000 µM: 58%
PBP2x 5204
  PBP2x5204 RA [%]: 123%
PBP5fm
  activity at 1000 µM: 39%
  IC50: 930 µM
[1]
  MIC: > 512 µg/mL
[2]
  MIC: > 512 µg/mL
[3]
  MIC: > 512 µg/mL
[4]
  MIC: > 512 µg/mL
[5]
  MIC: > 512 µg/mL
[6]
  MIC: > 512 µg/mL
[7]
  MIC: > 512 µg/mL
[8]
  MIC: > 512 µg/mL
[9]
  MIC: > 512 µg/mL
[10]
  MIC: > 512 µg/mL
[11]
  MIC: > 512 µg/mL
[12]
  MIC: > 512 µg/mL
[13]
  MIC: > 512 µg/mL
[14]
  MIC: > 512 µg/mL
[15]
  MIC: > 512 µg/mL
[16]
  MIC: > 512 µg/mL
[17]
  MIC: > 512 µg/mL
[18]
  MIC: > 512 µg/mL
[19]
  MIC: > 512 µg/mL
[20]
  MIC: > 512 µg/mL
[21]
  MIC: > 512 µg/mL

## CCCOc1cccc(C(=O)Nc2ccc(C)cc2C(=O)O)c1 [compound 10, 5-Methyl-2-(3-propoxybenzamido)benzoic acid]
PBP2a
  remaining activity at 1000 µM: 17%
  IC50: 680 µM
PBP2x 5204
  PBP2x5204 RA [%]: 121%
PBP5fm
  activity at 1000 µM: 69%
[1]
  MIC: 256 µg/mL (≈ 817 µM)
[2]
  MIC: > 512 µg/mL
[3]
  MIC: 256 µg/mL (≈ 817 µM)
[4]
  MIC: 256 µg/mL (≈ 817 µM)
[5]
  MIC: 128 µg/mL (≈ 408 µM)
[6]
  MIC: 128 µg/mL (≈ 408 µM)
[7]
  MIC: > 512 µg/mL
[8]
  MIC: > 512 µg/mL
[9]
  MIC: 256 µg/mL (≈ 817 µM)
[10]
  MIC: 32 µg/mL (≈ 102 µM)
[11]
  MIC: 256 µg/mL (≈ 817 µM)
[12]
  MIC: > 512 µg/mL
[13]
  MIC: > 512 µg/mL
[14]
  MIC: 128 µg/mL (≈ 408 µM)
[15]
  MIC: 256 µg/mL (≈ 817 µM)
[16]
  MIC: 256 µg/mL (≈ 817 µM)
[17]
  MIC: 128 µg/mL (≈ 408 µM)
[18]
  MIC: 2 µg/mL (≈ 6.38 µM)
[19]
  MIC: 2 µg/mL (≈ 6.38 µM)
[20]
  MIC: 2 µg/mL (≈ 6.38 µM)

## CCCOc1cccc(C(=O)Nc2ccccc2C(=O)O)c1 [compound 12, 2-(3-Propoxybenzamido)benzoic acid]
PBP2a
  remaining activity at 1000 µM: 47%
  IC50: 910 µM
PBP2x 5204
  PBP2x5204 RA [%]: 97%
PBP5fm
  activity at 1000 µM: 34%
  IC50: > 1000 µM
[1]
  MIC: > 512 µg/mL
[2]
  MIC: > 512 µg/mL
[3]
  MIC: 256 µg/mL (≈ 855 µM)
[4]
  MIC: > 512 µg/mL
[5]
  MIC: > 512 µg/mL
[6]
  MIC: 256 µg/mL (≈ 855 µM)
[7]
  MIC: > 512 µg/mL
[8]
  MIC: > 512 µg/mL
[9]
  MIC: > 512 µg/mL
[10]
  MIC: > 512 µg/mL
[11]
  MIC: 256 µg/mL (≈ 855 µM)
[12]
  MIC: > 512 µg/mL
[13]
  MIC: > 512 µg/mL
[14]
  MIC: 512 µg/mL (≈ 1710 µM)
[15]
  MIC: 512 µg/mL (≈ 1710 µM)
[16]
  MIC: 512 µg/mL (≈ 1710 µM)
[17]
  MIC: 256 µg/mL (≈ 855 µM)
[18]
  MIC: 256 µg/mL (≈ 855 µM)
[19]
  MIC: 256 µg/mL (≈ 855 µM)
[20]
  MIC: 256 µg/mL (≈ 855 µM)
[21]
  MIC: ≥ 256 µg/mL
